Measured values published in ChEMBL document CHEMBL5335811, “2-Phenylcyclopropylmethylamine (PCPMA) as a privileged scaffold for central nervous system drug design” (Bioorg Med Chem Lett, 2024).
Blank lines part the entries; values can stand above or below the molecule they belong to.

Key:
Homo sapiens = species on record: Homo sapiens; test: Selectivity ratio of Ki for sigma 2 receptor (unknown origin) to Ki for sigma 1 receptor assessed as inhibition of constant
[1] = biological target: Sigma non-opioid intracellular receptor 1 (Homo sapiens, UniProt Q99720); test: Binding affinity to sigma1 receptor (unknown origin) assessed as inhibition constant
Sigma non-opioid intracellular receptor 1, sequence (Q99720 whole entry): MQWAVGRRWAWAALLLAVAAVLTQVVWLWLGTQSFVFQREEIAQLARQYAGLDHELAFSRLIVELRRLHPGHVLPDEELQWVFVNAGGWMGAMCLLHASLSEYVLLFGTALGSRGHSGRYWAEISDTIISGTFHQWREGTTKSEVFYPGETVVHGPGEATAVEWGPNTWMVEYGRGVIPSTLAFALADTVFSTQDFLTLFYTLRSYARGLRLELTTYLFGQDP

[2] = biological target: Sigma intracellular receptor 2 (Homo sapiens, UniProt Q5BJF2); test: Binding affinity to sigma 2 receptor (unknown origin) assessed as inhibition constant
Sigma intracellular receptor 2, sequence (Q5BJF2 whole entry): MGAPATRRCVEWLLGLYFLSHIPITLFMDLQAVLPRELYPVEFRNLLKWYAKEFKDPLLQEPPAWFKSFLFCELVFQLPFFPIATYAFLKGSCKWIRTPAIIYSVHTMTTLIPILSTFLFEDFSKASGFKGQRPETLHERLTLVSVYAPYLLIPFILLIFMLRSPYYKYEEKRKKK

[3] = biological target: T1, 5-hydroxytryptamine receptor 2A (Homo sapiens, UniProt P28223); test: Agonist activity at N-terminal HA-tagged human 5HT2A receptor; type: functional
T1 sequence (P28223 whole entry): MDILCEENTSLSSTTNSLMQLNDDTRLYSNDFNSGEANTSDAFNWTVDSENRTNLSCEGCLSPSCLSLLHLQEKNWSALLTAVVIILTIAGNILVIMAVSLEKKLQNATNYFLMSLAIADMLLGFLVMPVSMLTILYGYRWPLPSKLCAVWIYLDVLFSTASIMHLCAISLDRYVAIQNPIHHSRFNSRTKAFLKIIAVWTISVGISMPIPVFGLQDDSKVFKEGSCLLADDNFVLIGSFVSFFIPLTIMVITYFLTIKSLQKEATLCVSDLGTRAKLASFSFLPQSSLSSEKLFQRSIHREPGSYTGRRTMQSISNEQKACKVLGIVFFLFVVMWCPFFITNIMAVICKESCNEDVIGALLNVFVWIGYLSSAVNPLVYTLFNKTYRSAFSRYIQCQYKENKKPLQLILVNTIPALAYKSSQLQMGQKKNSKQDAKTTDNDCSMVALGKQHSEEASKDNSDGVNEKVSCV

[4] = biological target: T1, 5-hydroxytryptamine receptor 2A; test: Agonist activity at N-terminal HA-tagged human 5HT2A receptor at 1 uM relative to control; type: functional
[5] = biological target: T2, 5-hydroxytryptamine receptor 2B (Homo sapiens, UniProt P41595); test: Agonist activity at 5HT2B (unknown origin) at 1 uM relative to control; type: functional
T2 sequence (P41595 whole entry): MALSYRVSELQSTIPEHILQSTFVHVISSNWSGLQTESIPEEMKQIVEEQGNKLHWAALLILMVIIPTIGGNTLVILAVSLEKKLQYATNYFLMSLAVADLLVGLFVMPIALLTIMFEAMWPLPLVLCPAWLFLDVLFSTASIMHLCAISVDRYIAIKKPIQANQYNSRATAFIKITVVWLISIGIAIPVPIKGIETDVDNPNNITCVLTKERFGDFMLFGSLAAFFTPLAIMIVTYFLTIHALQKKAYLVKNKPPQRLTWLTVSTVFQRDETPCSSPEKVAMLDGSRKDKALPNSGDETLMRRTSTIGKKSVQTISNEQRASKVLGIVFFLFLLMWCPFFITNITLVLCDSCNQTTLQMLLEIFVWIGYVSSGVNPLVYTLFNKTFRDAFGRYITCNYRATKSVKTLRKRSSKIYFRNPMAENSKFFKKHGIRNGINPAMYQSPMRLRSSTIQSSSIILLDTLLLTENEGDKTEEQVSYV

[6] = biological target: T2, 5-hydroxytryptamine receptor 2B; test: Agonist activity at 5HT2B (unknown origin); type: functional
[7] = biological target: T3, 5-hydroxytryptamine receptor 2C (Homo sapiens) (UniProt P28335); test: Agonist activity at 5HT2C receptor (unknown origin) at 1 uM relative to control; type: functional; conditions: filed as agonist
T3 sequence (whole entry): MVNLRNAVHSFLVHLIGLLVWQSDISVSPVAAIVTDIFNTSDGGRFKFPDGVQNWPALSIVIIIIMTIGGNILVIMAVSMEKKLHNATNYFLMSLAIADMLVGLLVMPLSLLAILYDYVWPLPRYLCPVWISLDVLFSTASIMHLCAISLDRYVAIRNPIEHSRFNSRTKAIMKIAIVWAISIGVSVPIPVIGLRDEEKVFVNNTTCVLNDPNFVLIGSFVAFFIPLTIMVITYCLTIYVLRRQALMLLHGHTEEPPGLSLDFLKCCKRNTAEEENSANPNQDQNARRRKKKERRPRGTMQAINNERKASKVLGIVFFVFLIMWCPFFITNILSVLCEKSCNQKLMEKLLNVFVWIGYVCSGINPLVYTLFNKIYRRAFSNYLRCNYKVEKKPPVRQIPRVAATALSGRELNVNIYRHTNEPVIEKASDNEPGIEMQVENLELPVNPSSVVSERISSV

[8] = biological target: T4, 5-hydroxytryptamine receptor 2C (Homo sapiens, UniProt P28335); test: Agonist activity at 5HT2C receptor (unknown origin); type: functional
T4 sequence (P28335 whole entry): T3 sequence (whole entry)

[9] = biological target: T1, 5-hydroxytryptamine receptor 2A; test: Agonist activity at human 5HT2A receptor; type: functional
[10] = Binding affinity to MT1 receptor (unknown origin) assessed as inhibition constant; set-up: species or system Homo sapiens
[11] = biological target: T5, Melatonin receptor type 1B (Homo sapiens, UniProt P49286); test: Binding affinity to MT2 receptor (unknown origin) assessed as inhibition constant
T5 sequence (P49286 whole entry): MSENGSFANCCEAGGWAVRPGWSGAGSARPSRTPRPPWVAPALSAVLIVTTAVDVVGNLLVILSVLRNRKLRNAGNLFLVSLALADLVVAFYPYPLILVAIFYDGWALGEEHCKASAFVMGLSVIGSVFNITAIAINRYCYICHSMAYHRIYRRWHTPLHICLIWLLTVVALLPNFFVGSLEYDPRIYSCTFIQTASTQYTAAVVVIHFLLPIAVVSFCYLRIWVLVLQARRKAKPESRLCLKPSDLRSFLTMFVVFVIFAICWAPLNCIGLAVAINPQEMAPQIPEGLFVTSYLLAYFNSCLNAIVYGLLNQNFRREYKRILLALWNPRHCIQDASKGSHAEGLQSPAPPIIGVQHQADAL

[12] = biological target: T3, 5-hydroxytryptamine receptor 2C (Homo sapiens); test: Agonist activity at 5HT2C receptor (unknown origin) at 10 uM relative to control; type: functional; conditions: filed as agonist
[13] = biological target: T1, 5-hydroxytryptamine receptor 2A; test: Agonist activity at 5HT2A receptor (unknown origin) at 10 uM relative to control; type: functional
[14] = Effect on emotional-affective response in USV-induced Sprague-Dawley rat assessed as reduction in ultrasonic vocalization; type: functional; conditions: read-out: MED
Mus musculus [15] = species on record: Mus musculus; test: Antidepressant activity in USV-induced Swiss albino mouse model of depression assessed as minimum effective dose; type: functional; conditions: read-out: MED
Mus musculus [16] = species on record: Mus musculus; test: Antidepressant activity in Swiss albino mouse assessed as minimum effective dose by tail suspension test; type: functional; conditions: read-out: MED
[17] = Terminal elimination half life in Sprague-Dawley rat at 12 mg/kg, po; type: ADME, organism-based; conditions: in vivo, read-out: beta t1/2 (converted)

SMILES: COC(=O)[C@]1(c2ccccc2)C[C@@H]1CN1CCC(O)(c2ccc(Cl)cc2)CC1
- Selectivity ratio (Homo sapiens): 5.5
- Ki [1]: 1.51 nM
- Ki [2]: 21.9 nM

SMILES: NC[C@@H]1C[C@@H]1c1cc(F)ccc1OCC1CC1
- EC50 [3]: 894 nM
- Emax [4]: 29%
- Emax [5]: 21%
- EC50 [6]: 289 nM
- Emax [7]: 71%
- EC50 [8]: 21 nM

- EC50 [9]: 600 nM
SMILES: CC1(C)Cc2cc(Cl)cc([C@H]3C[C@H]3CN)c2O1

- Ki [10]: 0.3 nM
- Ki [11]: 0.07 nM
SMILES: CCC(=O)NC[C@@H]1C[C@H]1c1cccc2c1CCO2 [TASIMELTEON]

SMILES: NC[C@@H]1C[C@@H]1c1cc(O)ccc1OCC1CC1
- EC50 [3]: 372 nM
- Emax [12]: 70%
- Emax [13]: 18%
- EC50 [8]: 9.3 nM

SMILES: CCN(CC)C(=O)[C@@]1(c2ccccc2)C[C@H]1CN [LEVOMILNACIPRAN]
- minimal effective dose [14]: 5 mg/kg
- minimal effective dose (Mus musculus [15]): 20 mg/kg
- minimal effective dose (Mus musculus [16]): 2.5 mg/kg
- half-life [17]: 12 h
